This note sets out measurements from patent US8871741B2, “Inhibition of TNF-α induced activation of NFKB by pentosan polysulfate” (Icahn School of Medicine at Mount Sinai, priority 2010, dated 2014).

In the assay the test system is 22 month-old diabetic C57B6 mice. As to the kind of experiment: Diabetic nephropathy in aged streptozotocin-diabetic C57B6 mice (albuminuria, renal histology, morphometry, serum chemistry). In kind it is in vivo, mouse. The procedure: 4 and 16-17 month-old female C57B6 mice were obtained from National Institute on Aging and were injected with streptozotocin to induce diabetes. Mice were given 50 μg/g of streptozotocin in every three days, for a total of 5-8 injections. A total of 250-400 μg/g of streptozotocin was sufficient in most of mice to induce stable hyperglycemia (≧250 mg/dL). The streptozotocin dose required to establish stable diabetes was similar between […] and 4 month-old mice. There was less than 10% of mortality in both age groups of diabetic mice with this streptozotocin protocol. Dead mice were excluded from further study. Mice with stable diabetes at 5 or 18 months of age were selected for randomization. Female C57B6 mice were chosen as the onset and nature of renal lesions in aging was documented by the inventors herein These mice have irregular, lengthened estrous cycles around 10 to 14 months of age and the cycles usually cease at 18 months of age. […] 18 month-old diabetic mice were randomly divided into PPS treated (n=10, PPS 25 mg/kg/day in drinking water) and control (n=11) groups. No PPS treatment was given to 5 month-old diabetic mice. Both age groups of diabetic mice were followed for 4 months without insulin treatment. Body weight and blood glucose levels were monitored weekly. Urine albumin excretion was measured bi-weekly using an ELISA kit (Bethyl Laboratory Inc, Houston, Tex., USA), as previously described (Zheng F, et al. Am J Pathol 2003, 162:1339-1348). Urine creatinine levels were measured in the same samples and the urine albumin excretion rate was expressed as the ratio of albumin to creatinine Blood urea nitrogen (BUN) levels and serum creatinine levels were examined at sacrifice. High-performance liquid chromatography (HPLC) was applied for determining serum creatinine levels using the method described by Yuen et al. (Am J Physiol Renal Physiol 2004, 286:F1116-1119).
Mice were sacrificed 4 months after stable hyperglycemia was established. Kidneys were perfused with a saline solution and subsequently one kidney was perfusion-fixed in situ with 4% paraformaldehyde for histologic studies. The tissues were embedded in glycol methacrylate or low melting paraffin, and stained with periodic acid Schiff (PAS) and Masson's Trichrome. Tissues were also postfixed for 1 hour in 1.0% osmium tetroxide, prestained in 1.25% uranyl acetate for 1 hour, dehydrated through a series of graded alcohol solutions, and embedded in EPON epoxy resin for electron microscopy. The glomerular volume and mesangial area were determined by examining plastic embedded sections using a digitizing tablet and video camera. The relative mesangial area was expressed as mesangial/glomerular surface area. Glomerular cell number was determined by counting the nuclear number in at least 30 glomeruli of each section. The glomerular basement membrane thickness was measured by the orthogonal intercept method on electron microscopic images. To determine the number of glomerular fenestrae, the length of was fenestrated or unfenestrated glomerular capillary endothelial cytoplasm was measured. Fenestrated endothelial cell cytoplasm was generally thin whereas the thickness of the unfenestrated endothelial cell cytoplasm was twice or more increased. Tubulointerstitial lesions were scored from 0 to 4 (0, no changes; 1+, changes affecting <25% of the sample; 2+, changes affecting 25 to 50% of the sample; 3+, changes affecting 50 to 75% of the sample; 4+, changes affecting 75 to 100% of the sample) based on tubular atrophy, increase in the thickness of basement membranes and interstitial area, and clusters of inflammatory cells.

[1] abbreviates: 22 month-old diabetic mice treated with PPS, n = 10, at sacrifice, mean±SD.
Setting [2] is: 22 month-old diabetic mice, PPS 25 mg/kg/day in drinking water, 4 months.
The mark [3] stands for this setting: morphometric analysis, PPS treated versus untreated 22 month-old diabetic mice.

Take pentosan polysulfate [PPS]: under setting [1], the BUN is listed as 21.3 ± 5.6 mg/dL and the “Scr (serum creatinine)” value stood at 0.118 ± 0.02 mg/dL. In addition, under setting [2], the “reduction in tubulointerstitial lesions” value was approximately 80% and the “reduction of the increase in the albumin excretion rate” value is listed as “about 50%”. Besides, under “morphometric analysis, PPS treated 22 month-old diabetic mice”, the “reduction of glomerular endothelial fenestrations” value is “largely prevented”. Under setting [3], the “glomerular basement membrane width” value is listed as “decreased” and the mesangial area entry is “decreased”.
